Structures are written as SMILES.

From patent US9415040B2 (priority 2008, dated 2016) come the findings set out here.

One test has as its system LuxN S205P. As to conditions: even at 500 μM AI-1, EC50 could not be assigned.
Test [1] has as its system LuxN F163A/R245L/S184N/G271D. The note with it: quadruple mutant LuxN F163A/R245L/S184N/G271D; EC50 could not be determined.
The next test has as its system LuxN F202A. The note with it: even at 500 μM AI-1, EC50 could not be assigned.
For the next test, the system named is LuxN E233A. As to conditions: even at 500 μM AI-1, EC50 could not be assigned.
For a further test, the system named is LuxN P226T. As to conditions: even at 500 μM AI-1, EC50 could not be assigned.
The subject of test [2] is Chromobacterium violaceum.

For `CC(O)CC(=O)NC1CCOC1=O` (stereo not drawn) [AI-1, 3-hydroxybutanoyl homoserine lactone], the “Light production phenotype with AI-1” value is “dark phenotype” in the test with LuxN S205P; “constitutively bright at all AI-1 concentrations” in test [1]; “dark phenotype” with LuxN F202A; “dark phenotype” in the test on LuxN E233A; “dark phenotype” in the test on LuxN P226T.
`N[C@H]1CCOC1=O` [HSL]: the “Median survival of C. elegans” value in test [2] is 4 days.
